Positions of bridges follow the written chain, without caps; N, C: chain ends. Non-standard residues stand in square brackets, D forms with d. Residues, ends and D or L forms follow the SMILES beside them. Agb = N=C(N)NCC[C@H](N)C(=O)O
What was measured:
human Nav1.7 = human Nav1.7 (Homo sapiens, UniProt Q15858); experiment: cell-based; conditions: for IC50: whole-cell voltage clamp, HEK 293 cells, read-out: hNav1.7 IC50
Protocol: HEK-293 cells stably expressing human Nav1.1, Nav1.4, Nav1.5, Nav1.6 and Nav1.7 were obtained from Dr. Chris Lossin. Rat Nav1.3 expressing HEK-293 cells were from Dr. Steven Waxman (Yale University, New Haven, CT). These cell lines were cultured in complete DMEM supplemented with 10% FBS, 1% penicillin/streptomycin, and G418. The human Nav1.8 channel (co-expressing with human Navβ1 and Navβ2 subunits) and the Nav1.9 channel (co-expressing with human Trkb, Navβ1, and Navβ2 subunits) were obtained from Icagen (Durham, NC). hNav1.8 cells cultured with G418 (0.4 mg/mL) and puromycin ([…]/mL) and hNav1.9 cells were cultured with G418 (0.4 mg/mL), puromycin ([…]), and zeocin (0.05 mg/mL). Human Nav1.2 were expressed transiently by transfection of the hNav1.2 cDNA (from Dr. Alan L. Goldin, UC Irvine, CA) into HEK-293 cells.
Whole-cell patch-clamp experiments on recombinant channels were conducted manually at room temperature (22-24° C.) using an EPC-10 amplifier (HEKA Electronik, Lambrecht/Pfalz, Germany). Cells were trypsinized and plated onto poly-1-lysine-coated coverslips. All recordings were done in normal Ringer external bath solution containing (in mM) 160 NaCl, 4.5 KCl, 2 CaCl2), 1 MgCl2, 10 HEPES (pH 7.4 and 305 mOsm) as. Patch pipettes were pulled from soda lime glass (micro-hematocrit tubes, Kimble Chase, Rochester, NY) and had resistances of 2-3 MQ when filled with CsF-based internal solution containing (in mM) 10 NaF, 110 CsF, 20 CsCl, 10 HEPES, 2 EGTA, (pH 7.4, 310 mOsm). Data acquisition and analysis were performed with Pulse-PulseFit (HEKA Electronik GmbH, Germany), IgorPro (WaveMetrics, Portland, OR), and Origin 9.0 software (OriginLab Corporation, Northampton, MA). Cells were held at −90 mV and voltage stepped to −120 mV for 200 ms before depolarizing to −10 mV for 50 msec to elicit inward currents. Control test currents were monitored for 5-10 min to ensure that the amplitude and kinetics of the response were stable. Series resistance was compensated to 80-90% and linear leak currents and capacitance artefacts were corrected using a P/4 subtraction method. Pulse interval was 0.1 Hz and peptides were applied to individual cells using a glass transfer pipette directly into the recording bath. For measuring inhibition, currents were allowed to saturate with repeated pulsing before addition of subsequent doses. IC50 values were derived from measurements performed on individual cells that were tested with at least three or more concentrations of each peptide.

human Nav1.2 = biological target: T1, human Nav1.2 (Homo sapiens, UniProt Q99250); experiment: cell-based; conditions: HEK293, read-out: block of hNav1.2 current (% inhibition)
T1 construct: host or cells: HEK-293 (transient)

human Nav1.5 = human Nav1.5 (Homo sapiens, UniProt Q14524); experiment: in vitro; format: cell-based; conditions: pH 7.4, read-out: block of hNav1.5 current (% inhibition)
human Nav1.4 = human Nav1.4 (Homo sapiens, UniProt P35499); experiment: cell-based; conditions: HEK293, read-out: block of hNav1.4 current (% inhibition)
hERG channel = hERG channel (Homo sapiens, UniProt Q12809); experiment: in vitro
[1] = system: rat models of thermal and chemical nociception; parameters: motor effect via intrathecal administration: dose or concentration left out as unconfirmed; conditions: cited from earlier work
hNav1.7 = hNav1.7 (Homo sapiens, UniProt Q15858); conditions: peptides of the literature; cited from earlier work
hNav1.7, sequence (Q15858 whole entry): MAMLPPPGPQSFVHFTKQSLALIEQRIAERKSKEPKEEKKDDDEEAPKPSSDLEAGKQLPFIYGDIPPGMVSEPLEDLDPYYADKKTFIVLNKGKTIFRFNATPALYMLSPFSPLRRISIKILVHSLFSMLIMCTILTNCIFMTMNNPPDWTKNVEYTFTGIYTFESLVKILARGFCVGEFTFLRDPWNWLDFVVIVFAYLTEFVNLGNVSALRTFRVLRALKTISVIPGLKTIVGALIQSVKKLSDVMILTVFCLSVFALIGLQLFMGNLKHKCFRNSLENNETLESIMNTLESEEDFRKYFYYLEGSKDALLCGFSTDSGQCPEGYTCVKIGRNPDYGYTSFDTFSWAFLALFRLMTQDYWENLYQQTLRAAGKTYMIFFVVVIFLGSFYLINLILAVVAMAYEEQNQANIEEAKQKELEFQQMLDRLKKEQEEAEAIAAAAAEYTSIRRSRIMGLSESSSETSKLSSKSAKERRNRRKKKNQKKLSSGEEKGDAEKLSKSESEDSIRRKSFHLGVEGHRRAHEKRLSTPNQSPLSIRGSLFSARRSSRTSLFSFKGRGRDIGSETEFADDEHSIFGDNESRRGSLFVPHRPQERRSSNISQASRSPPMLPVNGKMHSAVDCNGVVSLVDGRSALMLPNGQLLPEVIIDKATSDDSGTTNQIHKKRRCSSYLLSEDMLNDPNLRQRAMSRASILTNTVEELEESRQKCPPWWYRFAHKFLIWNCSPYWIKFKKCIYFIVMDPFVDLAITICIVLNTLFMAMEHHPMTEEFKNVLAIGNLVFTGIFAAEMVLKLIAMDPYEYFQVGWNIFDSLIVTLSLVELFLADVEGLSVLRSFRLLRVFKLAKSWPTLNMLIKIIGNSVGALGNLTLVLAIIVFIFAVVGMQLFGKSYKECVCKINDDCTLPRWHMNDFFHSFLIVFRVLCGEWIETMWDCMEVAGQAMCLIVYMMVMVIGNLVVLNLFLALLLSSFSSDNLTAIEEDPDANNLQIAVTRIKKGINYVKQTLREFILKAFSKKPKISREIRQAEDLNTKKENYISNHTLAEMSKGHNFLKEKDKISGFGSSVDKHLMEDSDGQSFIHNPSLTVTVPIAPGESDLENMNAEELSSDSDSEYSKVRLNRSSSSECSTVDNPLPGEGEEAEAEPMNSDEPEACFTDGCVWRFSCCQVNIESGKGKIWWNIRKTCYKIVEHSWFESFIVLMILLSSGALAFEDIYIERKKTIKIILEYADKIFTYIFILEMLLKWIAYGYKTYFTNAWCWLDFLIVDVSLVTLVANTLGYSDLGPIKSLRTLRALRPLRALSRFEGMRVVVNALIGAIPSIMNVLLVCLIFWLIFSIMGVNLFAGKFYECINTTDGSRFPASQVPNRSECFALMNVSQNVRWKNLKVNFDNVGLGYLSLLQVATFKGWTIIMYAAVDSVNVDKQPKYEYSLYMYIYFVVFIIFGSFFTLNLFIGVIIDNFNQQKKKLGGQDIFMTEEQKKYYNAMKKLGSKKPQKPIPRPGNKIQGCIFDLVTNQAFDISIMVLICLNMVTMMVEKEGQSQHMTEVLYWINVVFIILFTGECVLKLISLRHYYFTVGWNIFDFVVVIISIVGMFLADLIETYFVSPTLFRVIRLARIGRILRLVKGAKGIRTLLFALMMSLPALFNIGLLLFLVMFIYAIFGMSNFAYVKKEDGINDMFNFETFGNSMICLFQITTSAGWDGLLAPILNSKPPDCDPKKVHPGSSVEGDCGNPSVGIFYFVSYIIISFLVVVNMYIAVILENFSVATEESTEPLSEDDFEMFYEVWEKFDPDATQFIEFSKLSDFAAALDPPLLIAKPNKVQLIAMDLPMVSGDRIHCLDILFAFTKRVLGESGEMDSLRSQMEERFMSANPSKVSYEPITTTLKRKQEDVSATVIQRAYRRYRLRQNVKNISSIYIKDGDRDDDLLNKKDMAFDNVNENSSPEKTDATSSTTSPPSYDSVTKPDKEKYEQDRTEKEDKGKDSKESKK

human Nav1.7, sequence (Q15858 whole entry): as above
human Nav1.5, sequence (Q14524 whole entry): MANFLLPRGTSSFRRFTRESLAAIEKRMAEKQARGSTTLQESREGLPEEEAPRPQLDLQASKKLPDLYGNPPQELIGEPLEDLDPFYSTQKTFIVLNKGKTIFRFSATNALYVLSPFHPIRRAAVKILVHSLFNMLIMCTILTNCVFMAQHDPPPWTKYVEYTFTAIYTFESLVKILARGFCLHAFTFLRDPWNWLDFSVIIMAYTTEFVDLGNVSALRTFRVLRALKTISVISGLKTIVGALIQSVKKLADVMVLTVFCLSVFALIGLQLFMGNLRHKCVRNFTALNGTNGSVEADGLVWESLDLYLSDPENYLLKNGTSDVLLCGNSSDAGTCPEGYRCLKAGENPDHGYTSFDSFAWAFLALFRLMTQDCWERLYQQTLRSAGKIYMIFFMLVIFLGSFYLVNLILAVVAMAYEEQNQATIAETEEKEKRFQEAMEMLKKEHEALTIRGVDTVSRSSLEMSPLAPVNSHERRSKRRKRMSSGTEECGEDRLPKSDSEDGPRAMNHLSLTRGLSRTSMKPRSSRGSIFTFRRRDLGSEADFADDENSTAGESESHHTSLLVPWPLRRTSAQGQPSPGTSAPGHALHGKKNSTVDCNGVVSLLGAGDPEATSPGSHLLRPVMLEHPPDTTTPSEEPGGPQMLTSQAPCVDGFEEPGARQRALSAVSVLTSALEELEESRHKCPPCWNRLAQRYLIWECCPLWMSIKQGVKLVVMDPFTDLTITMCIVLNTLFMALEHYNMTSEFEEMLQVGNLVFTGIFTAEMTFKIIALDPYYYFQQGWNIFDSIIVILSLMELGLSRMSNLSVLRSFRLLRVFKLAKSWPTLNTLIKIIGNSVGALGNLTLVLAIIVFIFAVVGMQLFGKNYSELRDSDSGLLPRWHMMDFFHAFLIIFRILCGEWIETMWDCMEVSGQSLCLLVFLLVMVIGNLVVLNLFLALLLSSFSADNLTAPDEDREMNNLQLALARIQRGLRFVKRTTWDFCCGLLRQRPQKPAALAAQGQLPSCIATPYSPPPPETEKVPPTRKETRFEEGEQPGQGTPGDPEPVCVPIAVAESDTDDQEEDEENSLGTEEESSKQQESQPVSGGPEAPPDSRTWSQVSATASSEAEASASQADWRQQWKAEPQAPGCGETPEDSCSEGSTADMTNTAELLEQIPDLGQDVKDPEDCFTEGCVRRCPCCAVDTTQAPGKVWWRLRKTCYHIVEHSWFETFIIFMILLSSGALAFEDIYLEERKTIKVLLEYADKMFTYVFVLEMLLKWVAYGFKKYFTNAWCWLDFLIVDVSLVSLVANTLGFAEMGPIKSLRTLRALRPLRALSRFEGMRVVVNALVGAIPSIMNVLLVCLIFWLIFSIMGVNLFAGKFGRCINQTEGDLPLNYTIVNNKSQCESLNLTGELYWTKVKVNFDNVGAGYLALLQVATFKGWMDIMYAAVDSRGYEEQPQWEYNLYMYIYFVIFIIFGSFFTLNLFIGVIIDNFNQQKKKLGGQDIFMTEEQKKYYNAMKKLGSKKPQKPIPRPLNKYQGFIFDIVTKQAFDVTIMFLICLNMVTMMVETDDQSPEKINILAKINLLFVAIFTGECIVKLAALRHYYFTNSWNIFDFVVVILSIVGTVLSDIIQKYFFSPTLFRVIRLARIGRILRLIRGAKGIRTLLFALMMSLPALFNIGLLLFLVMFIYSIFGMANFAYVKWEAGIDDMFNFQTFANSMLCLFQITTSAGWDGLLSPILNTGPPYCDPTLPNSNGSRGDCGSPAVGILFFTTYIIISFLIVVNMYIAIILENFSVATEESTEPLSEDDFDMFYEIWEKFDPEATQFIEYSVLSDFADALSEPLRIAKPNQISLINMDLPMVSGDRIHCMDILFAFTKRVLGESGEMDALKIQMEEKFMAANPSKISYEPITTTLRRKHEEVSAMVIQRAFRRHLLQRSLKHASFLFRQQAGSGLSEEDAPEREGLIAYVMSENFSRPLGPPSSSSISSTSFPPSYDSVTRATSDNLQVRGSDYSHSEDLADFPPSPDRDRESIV

Compound: CC(C)C[C@@H]1NC(=O)CNC(=O)[C@H](CCC(=O)O)NC(=O)[C@@H]2CSSC[C@H](NC(=O)[C@@H](N)Cc3ccc(O)cc3)C(=O)N[C@@H](CCC(N)=O)C(=O)N[C@@H](CCCCN)C(=O)N[C@@H](C)C(=O)N[C@@H](Cc3ccccc3)C(=O)N[C@@H](Cc3c[nH]c4ccccc34)C(=O)N[C@@H]([C@@H](C)O)C(=O)N[C@H]3CSSC[C@H](NC(=O)[C@H](CCCNC(=N)N)NC1=O)C(=O)N[C@@H](CCNC(=N)N)C(=O)N[C@@H](CC(C)C)C(=O)N[C@@H](Cc1c[nH]c4ccccc14)C(=O)N[C@H](C(=O)N[C@@H](CCCCN)C(=O)N[C@@H](CCCCN)C(=O)N[C@@H](CCC(=O)O)C(=O)N[C@@H](CC(C)C)C(=O)N[C@@H](Cc1c[nH]c4ccccc14)C(N)=O)CSSC[C@H](NC(=O)[C@H](CCCCN)NC(=O)[C@H](CCCNC(=N)N)NC(=O)[C@H](CCC(=O)O)NC(=O)[C@H](CO)NC(=O)[C@H](CC(=O)O)NC3=O)C(=O)N2 [PTx2-2954]
- effect on hNav1.7 currents (human Nav1.7; at 5 μM): no effect

Compound: CC(C)C[C@@H]1NC(=O)CNC(=O)[C@H](CCC(=O)O)NC(=O)[C@@H]2CSSC[C@H](NC(=O)[C@@H](N)Cc3ccc(O)cc3)C(=O)N[C@@H](CCC(N)=O)C(=O)N[C@@H](CCCCN)C(=O)N[C@@H](C)C(=O)N[C@@H](Cc3ccccc3)C(=O)N[C@@H](Cc3c[nH]c4ccccc34)C(=O)N[C@@H]([C@@H](C)O)C(=O)N[C@H]3CSSC[C@H](NC(=O)[C@H](CCCNC(=N)N)NC1=O)C(=O)N[C@@H](CCNC(=N)N)C(=O)N[C@@H](CC(C)C)C(=O)N[C@@H](Cc1c[nH]c4ccccc14)C(=O)N[C@H](C(=O)N[C@@H](CCCNC(=N)N)C(=O)N[C@@H](CCCCN)C(=O)N[C@@H](CCC(=O)O)C(=O)N[C@@H](CC(C)C)C(=O)N[C@@H](Cc1c[nH]c4ccccc14)C(N)=O)CSSC[C@H](NC(=O)[C@H](CCCCN)NC(=O)[C@H](CCCNC(=N)N)NC(=O)[C@H](CCC(=O)O)NC(=O)[C@H](CO)NC(=O)[C@H](CC(=O)O)NC3=O)C(=O)N2 [PTx2-2955]
- IC50 (human Nav1.7): 0.185 µM

Compound: CC(C)C[C@@H]1NC(=O)CNC(=O)[C@H](CCC(=O)O)NC(=O)[C@@H]2CSSC[C@H](NC(=O)[C@@H](N)Cc3ccc(O)cc3)C(=O)N[C@@H](CCC(N)=O)C(=O)N[C@@H](CCCCN)C(=O)N[C@@H](C)C(=O)N[C@@H](Cc3ccccc3)C(=O)N[C@@H](Cc3c[nH]c4ccccc34)C(=O)N[C@@H]([C@@H](C)O)C(=O)N[C@H]3CSSC[C@H](NC(=O)[C@H](CCCNC(=N)N)NC1=O)C(=O)N[C@@H](CCNC(=N)N)C(=O)N[C@@H](CC(C)C)C(=O)N[C@@H](Cc1c[nH]c4ccccc14)C(=O)N[C@H](C(=O)N[C@@H](CCCNC(=N)N)C(=O)N[C@@H](CCCCN)C(=O)N[C@@H](CCC(=O)O)C(=O)N[C@@H](CC(C)C)C(=O)N[C@@H](Cc1c[nH]c4ccccc14)C(N)=O)CSSC[C@H](NC(=O)[C@H](CCCCN)NC(=O)[C@H](CCCNC(=N)N)NC(=O)[C@H](C)NC(=O)[C@H](CO)NC(=O)[C@H](CC(=O)O)NC3=O)C(=O)N2 [PTx2-3063] (H-YCQKAFWTCDSARKCCEGLRC[Agb]LWCRKELW-NH2; disulfide 2-16, 9-21, 15-25)
- IC50 (human Nav1.7): 0.154 µM

Compound: CC(C)C[C@@H]1NC(=O)CNC(=O)[C@H](CCC(=O)O)NC(=O)[C@@H]2CSSC[C@H](NC(=O)[C@@H](N)Cc3ccc(O)cc3)C(=O)N[C@@H](CCC(N)=O)C(=O)N[C@@H](CCCCN)C(=O)N[C@@H](C)C(=O)N[C@@H](Cc3ccccc3)C(=O)N[C@@H](Cc3c[nH]c4ccccc34)C(=O)N[C@@H]([C@@H](C)O)C(=O)N[C@H]3CSSC[C@H](NC(=O)[C@H](CCCNC(=N)N)NC1=O)C(=O)N[C@@H](CCCNC(=N)N)C(=O)N[C@@H](CC(C)C)C(=O)N[C@@H](Cc1c[nH]c4ccccc14)C(=O)N[C@H](C(=O)N[C@@H](CCCNC(=N)N)C(=O)N[C@@H](CCCCN)C(=O)N[C@@H](CCC(=O)O)C(=O)N[C@@H](CC(C)C)C(=O)N[C@@H](Cc1c[nH]c4ccccc14)C(N)=O)CSSC[C@H](NC(=O)[C@H](CCCCN)NC(=O)[C@H](CCCNC(=N)N)NC(=O)[C@H](C)NC(=O)[C@H](CO)NC(=O)[C@H](CC(=O)O)NC3=O)C(=O)N2 [PTx2-3064] (H-YCQKAFWTCDSARKCCEGLRCRLWCRKELW-NH2; disulfide 2-16, 9-21, 15-25)
- inhibition at 10 µM (human Nav1.2): ~92%
- inhibition at 10 µM (human Nav1.5): ~25%
- inhibition at 10 µM (human Nav1.4): ~66%

Compound: CSCC[C@@H]1NC(=O)[C@H](Cc2c[nH]c3ccccc23)NC(=O)[C@H](CCCCN)NC(=O)[C@H](CCC(N)=O)NC(=O)[C@@H](NC(=O)[C@@H](N)Cc2ccc(O)cc2)CSSC[C@@H]2NC(=O)[C@@H]3CSSC[C@@H](C(=O)N[C@@H](CCCNC(=N)N)C(=O)N[C@@H](CCCCN)C(=O)N[C@@H](CCC(=O)O)C(=O)N[C@@H](CC(C)C)C(=O)N[C@@H](CC(C)C)C(N)=O)NC(=O)[C@H](Cc4c[nH]c5ccccc45)NC(=O)[C@H](CC(C)C)NC(=O)[C@H](CCCNC(=N)N)NC(=O)[C@H](CSSC[C@H](NC(=O)[C@H]([C@@H](C)O)NC(=O)[C@H](CCC(N)=O)NC1=O)C(=O)N[C@@H](CC(=O)O)C(=O)N[C@@H](CCCCN)C(=O)N[C@@H](CC(=O)O)C(=O)N[C@@H](CCCNC(=N)N)C(=O)N[C@@H](CCCCN)C(=O)N3)NC(=O)[C@H](CCCNC(=N)N)NC(=O)[C@H](CC(C)C)NC(=O)CNC(=O)[C@H](CCC(=O)O)NC2=O [PTx2-3066] (H-YCQKWMQTCDKDRKCCEGLRCRLWCRKELL-NH2; disulfide 2-16, 9-21, 15-25)
- inhibition at 10 µM (human Nav1.2): ~41%
- inhibition at 10 µM (human Nav1.5): ~1%
- inhibition at 10 µM (human Nav1.4): ~34%
- IC50 (human Nav1.7): 0.0308 µM

Compound: CSCC[C@@H]1NC(=O)[C@H](Cc2c[nH]c3ccccc23)NC(=O)[C@H](CCCCN)NC(=O)[C@H](CCC(N)=O)NC(=O)[C@@H](NC(=O)[C@@H](N)Cc2c[nH]cn2)CSSC[C@@H]2NC(=O)[C@@H]3CSSC[C@@H](C(=O)N[C@@H](CCCNC(=N)N)C(=O)N[C@@H](CCCCN)C(=O)N[C@@H](CCC(=O)O)C(=O)N[C@@H](CC(C)C)C(=O)N[C@@H](CC(C)C)C(N)=O)NC(=O)[C@H](Cc4c[nH]c5ccccc45)NC(=O)[C@H](CC(C)C)NC(=O)[C@H](CCCNC(=N)N)NC(=O)[C@H](CSSC[C@H](NC(=O)[C@H]([C@@H](C)O)NC(=O)[C@H](CCC(N)=O)NC1=O)C(=O)N[C@@H](CC(=O)O)C(=O)N[C@@H](CCCCN)C(=O)N[C@@H](CC(=O)O)C(=O)N[C@@H](CCCNC(=N)N)C(=O)N[C@@H](CCCCN)C(=O)N3)NC(=O)[C@H](CCCNC(=N)N)NC(=O)[C@H](Cc1ccccc1)NC(=O)CNC(=O)[C@H](CCC(=O)O)NC2=O [PTx2-3258]
- IC50 (hERG channel): 1 µM

Compound: CSCC[C@@H]1NC(=O)CNC(=O)[C@H](CCC(=O)O)NC(=O)[C@@H]2CSSC[C@H](NC(=O)[C@@H](N)Cc3ccc(O)cc3)C(=O)N[C@@H](CCC(N)=O)C(=O)N[C@@H](CCCCN)C(=O)N[C@@H](Cc3c[nH]c4ccccc34)C(=O)N[C@@H](CCSC)C(=O)N[C@@H](Cc3c[nH]c4ccccc34)C(=O)N[C@@H]([C@@H](C)O)C(=O)N[C@H]3CSSC[C@H](NC(=O)[C@H](C(C)C)NC1=O)C(=O)N[C@@H](CCCNC(=N)N)C(=O)N[C@@H](CC(C)C)C(=O)N[C@@H](Cc1c[nH]c4ccccc14)C(=O)N[C@H](C(=O)N[C@@H](CCCCN)C(=O)N[C@@H](CCCCN)C(=O)N[C@@H](CCCCN)C(=O)N[C@@H](CC(C)C)C(=O)N[C@@H](Cc1c[nH]c4ccccc14)C(=O)O)CSSC[C@H](NC(=O)[C@H](CCCCN)NC(=O)[C@H](CCCNC(=N)N)NC(=O)[C@H](CCC(=O)O)NC(=O)[C@H](CO)NC(=O)[C@H](CC(=O)O)NC3=O)C(=O)N2 [ProTx-II]
- effect on nociceptive assays ([1]; 0.24 μg i.t., Merck's study): no effect
- motor effect via intrathecal administration ([1]; Merck's study): laming effect
- maximum tolerated dose ([1]; in 10 μL, rats, Janssen's study): 2 µg
- analgesic effect following intrathecal injection ([1]; rat models of thermal and chemical nociception, Janssen Biotech): strong analgesic effect

Compound: DCLKFGWKCNPRNDKCCSGLKSGSNHNWCKLHL [ProTx-III]
- IC50 (hNav1.7): 0.0115 µM

Compound: ECQKWMWTCDSARACCEGLRCKLWCRKII [JzTx-V]
- IC50 (hNav1.7): 0.0006 µM

— patent publication US20260001922A1, “PEPTIDES TARGETING SODIUM CHANNELS TO TREAT PAIN” (priority 2022, published 2026)
